In the assay the target is CK2 (Homo sapiens (Human), UniProt P68400). The assay can be described thus: Radiometric CK2 kinase assay. In kind it is biochemical. Conditions: for inhibition at 1 µM: compound at 1 μM.
Setting [1] is: inhibition of CK2 activity, ATP 10 μM.

Where two headings read alike, the source gives them in different places.

Sequence of CK2 (P68400 whole entry): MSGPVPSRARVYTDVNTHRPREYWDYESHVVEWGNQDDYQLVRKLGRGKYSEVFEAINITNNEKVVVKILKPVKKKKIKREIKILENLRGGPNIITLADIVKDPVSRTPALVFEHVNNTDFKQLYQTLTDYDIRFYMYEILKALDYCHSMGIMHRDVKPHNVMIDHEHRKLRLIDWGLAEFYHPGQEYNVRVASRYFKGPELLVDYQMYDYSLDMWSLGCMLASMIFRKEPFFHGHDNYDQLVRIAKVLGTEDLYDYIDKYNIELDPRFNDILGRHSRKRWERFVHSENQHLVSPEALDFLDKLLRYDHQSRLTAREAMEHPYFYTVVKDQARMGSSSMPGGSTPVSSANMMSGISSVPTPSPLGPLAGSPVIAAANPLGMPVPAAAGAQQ

Usually inhibition stands for the change of the read-out against control, counted positive when it falls. In turn, `CC(C)COC(=O)c1[nH]c2ccc(F)cc2c1-c1cn(CC2CCN(Cc3ccc(Oc4cccc(C(C)C)c4)c(C(C)C)c3)CC2)nn1` [AB713, Isobutyl 5-fluoro-3-(1-((1-(3-isopropyl-4-(3-isopropylphenoxy)benzyl)piperidin-4-yl)methyl)-1H-1,2,3-triazol-4-yl)-1H-indole-2-carboxylate] displayed an inhibition at 1 µM (ATP 10 μM) of 5%.
With `CC(C)COC(=O)c1[nH]c2ccc(F)cc2c1-c1cn(CC2CCN(Cc3ccc(Oc4ccc5c(c4)CCO5)c(C(C)C)c3)CC2)nn1` [AB717, Isobutyl 3-(1-((1-(4-((2,3-dihydrobenzofuran-5-yl)oxy)-3-isopropylbenzyl)piperidin-4-yl)methyl)-1H-1,2,3-triazol-4-yl)-5-fluoro-1H-indole-2-carboxylate], the inhibition at 1 µM (ATP 10 μM) worked out at 2%.
For the compound `CC(=O)c1cccc(Oc2ccc(CN3CCC(Cn4cc(-c5c(C(=O)OCC(C)C)[nH]c6ccc(F)cc56)nn4)CC3)cc2C(C)C)c1` [AB718, Isobutyl 3-(1-((1-(4-(3-acetylphenoxy)-3-isopropylbenzyl)piperidin-4-yl)methyl)-1H-1,2,3-triazol-4-yl)-5-fluoro-1H-indole-2-carboxylate], where the note is “ATP 10 μM”, the inhibition at 1 µM was 5%.
With `CC(C)COC(=O)c1[nH]c2ccc(F)cc2c1-c1cn(CC2CCN(Cc3ccc(-c4ccc5c(c4)CCO5)c(Cl)c3)CC2)nn1` [AB731, Isobutyl 3-(1-((1-(3-chloro-4-(2,3-dihydrobenzofuran-5-yl)benzyl)piperidin-4-yl)methyl)-1H-1,2,3-triazol-4-yl)-5-fluoro-1H-indole-2-carboxylate], for the setting “ATP 10 μM”, 1 µM produced 5% inhibition.
Still for that read-out and setting: the result for `CC(=O)c1cccc(-c2ccc(CN3CCC(Cn4cc(-c5c(C(=O)OCC(C)C)[nH]c6ccc(F)cc56)nn4)CC3)cc2Cl)c1` [AB739, Isobutyl 3-(1-((1-((3′-acetyl-2-chloro-[1,1′-biphenyl]-4-yl)methyl)piperidin-4-yl)methyl)-1H-1,2,3-triazol-4-yl)-5-fluoro-1H-indole-2-carboxylate] reads 7%; that for `CC(C)CCOc1ccccc1-c1ccc(C(=O)N2CCC(Cn3cc(-c4c(C(=O)OCC(C)C)[nH]c5ccc(F)cc45)nn3)CC2)cc1Cl` [AB743, Isobutyl 3-(1-((1-(2-chloro-2′-(isopentyloxy)-[1,1′-biphenyl]-4-carbonyl)piperidin-4-yl)methyl)-1H-1,2,3-triazol-4-yl)-5-fluoro-1H-indole-2-carboxylate], 9%; that for `CC(C)CCOc1ccc(CN2CCC(Cn3cc(-c4c(C(=O)OCC(C)C)[nH]c5ccc(F)cc45)nn3)CC2)cc1Cl` [AB746, Isobutyl 3-(1-((1-(3-chloro-4-(isopentyloxy)benzyl)piperidin-4-yl)methyl)-1H-1,2,3-triazol-4-yl)-5-fluoro-1H-indole-2-carboxylate], 15%.
Same read-out and setting: the figure for `CC(C)COC(=O)c1[nH]c2ccc(F)cc2c1-c1cn(CC2CCN(Cc3ccc(-c4ccc5[nH]ccc5c4)c(Cl)c3)CC2)nn1` [AB753, Isobutyl 3-(1-((1-(3-chloro-4-(1H-indol-5-yl)benzyl)piperidin-4-yl)methyl)-1H-1,2,3-triazol-4-yl)-5-fluoro-1H-indole-2-carboxylate] is 18%.
On to `CC(C)COC(=O)c1[nH]c2ccc(F)cc2c1-c1cn(CC2CCN(S(=O)(=O)N3CCN(Cc4ccccc4)CC3)CC2)nn1` [AB755], for which, for the setting “ATP 10 μM”, testing at 1 µM gave an inhibition of 56%.
Take `CC(C)COC(=O)c1[nH]c2ccc(F)cc2c1-c1cn(CC2CCN(C(=O)c3ccc(-c4cccc5[nH]ccc45)c(C(F)(F)F)c3)CC2)nn1` [AB756, Isobutyl 3-(1-((1-(4-(1H-indol-4-yl)-3-(trifluoromethyl)benzoyl)piperidin-4-yl)methyl)-1H-1,2,3-triazol-4-yl)-5-fluoro-1H-indole-2-carboxylate]: where the note is “ATP 10 μM”, 1 µM produced 19% inhibition.
As for `CC(C)COC(=O)c1[nH]c2ccc(F)cc2c1-c1cn(CC2CCN(Cc3ccc(-c4cccc(C(C)C)c4)c(Cl)c3)CC2)nn1` [AB758, Isobutyl 3-(1-((1-((2-chloro-3′-isopropyl-[1,1′-biphenyl]-4-yl)methyl)piperidin-4-yl)methyl)-1H-1,2,3-triazol-4-yl)-5-fluoro-1H-indole-2-carboxylate], at 1 µM the inhibition (ATP 10 μM) was 17%.
Regarding `CC(C)COC(=O)c1[nH]c2ccc(F)cc2c1-c1cn(CC2CCN(Cc3ccc(OCC(C)C)c(Cl)c3)CC2)nn1` [AB760, Isobutyl 3-(1-((1-(3-chloro-4-isobutoxybenzyl)piperidin-4-yl)methyl)-1H-1,2,3-triazol-4-yl)-5-fluoro-1H-indole-2-carboxylate], for the setting “ATP 10 μM”, the inhibition at 1 µM turned out to be 15%.
The term IC50 denotes the concentration needed to halve the response being measured. Lower therefore signals greater potency. `CC(C)COC(=O)c1[nH]c2ccc(F)cc2c1-c1cn(CC2CCN(CCNS(=O)(=O)c3ccc(OC(F)(F)F)cc3)CC2)nn1` [AB912, isobutyl 5-fluoro-3-(1-((1-(2-((4-(trifluoromethoxy)phenyl)sulfonamido)ethyl)piperidin-4-yl)methyl)-1H-1,2,3-triazol-4-yl)-1H-indole-2-carboxylate] showed an IC50 of 300 nM.
Compound `CC(C)COC(=O)c1[nH]c2ccc(F)cc2c1-c1cn(CC2CCN(CCNS(=O)(=O)c3ccc(-c4ccccc4)cc3)CC2)nn1` [AB913, isobutyl 3-(1-((1-(2-([1,1′-biphenyl]-4-sulfonamido)ethyl)piperidin-4-yl)methyl)-1H-1,2,3-triazol-4-yl)-5-fluoro-1H-indole-2-carboxylate] registered an IC50 of 80 nM.
Regarding `CC(C)COC(=O)c1[nH]c2ccc(F)cc2c1-c1cn(CC2CCN(CCNS(=O)(=O)c3ccc(C4CCCCC4)cc3)CC2)nn1` [AB914, isobutyl 3-(1-((1-(2-((4-cyclohexylphenyl)sulfonamido)ethyl)piperidin-4-yl)methyl)-1H-1,2,3-triazol-4-yl)-5-fluoro-1H-indole-2-carboxylate], it took 71 nM to reach half-maximal inhibition (IC50).
Same read-out and setting: the figure for `CC(C)COC(=O)c1[nH]c2ccc(F)cc2c1-c1cn(CC2CCN(CCNS(=O)(=O)c3ccc(OC(C)C)cc3)CC2)nn1` [AB917, isobutyl 5-fluoro-3-(1-((1-(2-((4-isopropoxyphenyl)sulfonamido)ethyl)piperidin-4-yl)methyl)-1H-1,2,3-triazol-4-yl)-1H-indole-2-carboxylate] is 600 nM.
Under setting [1], `CC(C)COC(=O)c1[nH]c2ccc(F)cc2c1-c1cn(CC2CCN(CCNS(=O)(=O)N3CCC(Cc4ccccc4)CC3)CC2)nn1` [AB918, isobutyl 3-(1-((1-(2-((4-benzylpiperidine)-1-sulfonamido)ethyl)piperidin-4-yl)methyl)-1H-1,2,3-triazol-4-yl)-5-fluoro-1H-indole-2-carboxylate] came in with an IC50 of 400 nM.
Compound `CC(C)COC(=O)c1[nH]c2ccc(F)cc2c1-c1cn(CC2CCN(CCNS(=O)(=O)N3CCC(c4ccccc4)CC3)CC2)nn1` [AB929, isobutyl 5-fluoro-3-(1-((1-(2-((4-phenylpiperidine)-1-sulfonamido)ethyl)piperidin-4-yl)methyl)-1H-1,2,3-triazol-4-yl)-1H-indole-2-carboxylate] registered an IC50 under setting [1] of 58 nM.
With `CC(C)COC(=O)c1[nH]c2ccc(F)cc2c1-c1cn(CC2CCN(CCNS(=O)(=O)c3ccc4c(c3)CCO4)CC2)nn1` [AB930, isobutyl 3-(1-((1-(2-((2,3-dihydrobenzofuran)-5-sulfonamido)ethyl)piperidin-4-yl)methyl)-1H-1,2,3-triazol-4-yl)-5-fluoro-1H-indole-2-carboxylate], under “ATP 10 μM”, the inhibition at 1 µM stood at 45%.
The compound `CCC(C)c1ccc(S(=O)(=O)NCCN2CCC(Cn3cc(-c4c(C(=O)OCC(C)C)[nH]c5ccc(F)cc45)nn3)CC2)cc1` (stereo not drawn) [AB931, isobutyl 3-(1-((1-(2-((4-(sec-butyl)phenyl)sulfonamido)ethyl)piperidin-4-yl)methyl)-1H-1,2,3-triazol-4-yl)-5-fluoro-1H-indole-2-carboxylate] came in with an IC50 under setting [1] of 100 nM.
In turn, `CC(C)COC(=O)c1[nH]c2ccc(F)cc2c1-c1cn(CC2CCN(CCNS(=O)(=O)c3ccc4c(c3)CCC4)CC2)nn1` [AB932, isobutyl 3-(1-((1-(2-((2,3-dihydro-1H-indene)-5-sulfonamido)ethyl)piperidin-4-yl)methyl)-1H-1,2,3-triazol-4-yl)-5-fluoro-1H-indole-2-carboxylate] came in with an IC50 of 75 nM.
For `CC(C)COC(=O)c1[nH]c2ccc(F)cc2c1-c1cn(CC2CCN(CCNS(=O)(=O)c3ccc(Oc4ccccc4)cc3)CC2)nn1` [AB933, isobutyl 5-fluoro-3-(1-((1-(2-((4-phenoxyphenyl)sulfonamido)ethyl)piperidin-4-yl)methyl)-1H-1,2,3-triazol-4-yl)-1H-indole-2-carboxylate], the concentration for half-maximal inhibition (IC50) under setting [1] was determined as 62 nM.
In turn, `CC(C)COC(=O)c1[nH]c2ccc(F)cc2c1-c1cn(CC2CCN(CCNS(=O)(=O)c3ccc(C(C)(C)C)cc3)CC2)nn1` [AB934, isobutyl 3-(1-((1-(2-((4-(tert-butyl)phenyl)sulfonamido)ethyl)piperidin-4-yl)methyl)-1H-1,2,3-triazol-4-yl)-5-fluoro-1H-indole-2-carboxylate] yielded an IC50 of 52 nM.
The compound `CC(C)COC(=O)c1[nH]c2ccc(F)cc2c1-c1cn(CC2CCN(CCNS(=O)(=O)Cc3ccc(C(F)(F)F)cc3)CC2)nn1` [AB935, isobutyl 5-fluoro-3-(1-((1-(2-(((4-(trifluoromethyl)phenyl)methyl)sulfonamido)ethyl)piperidin-4-yl)methyl)-1H-1,2,3-triazol-4-yl)-1H-indole-2-carboxylate] registered an IC50 under setting [1] of 49 nM.
On the same count and under the same terms, the figure for `CC(C)COC(=O)c1[nH]c2ccc(F)cc2c1-c1cn(CC2CCN(CCNS(=O)(=O)Cc3ccc(Cl)cc3)CC2)nn1` [AB936, isobutyl 3-(1-((1-(2-(((4-chlorophenyl)methyl)sulfonamido)ethyl)piperidin-4-yl)methyl)-1H-1,2,3-triazol-4-yl)-5-fluoro-1H-indole-2-carboxylate] is 550 nM.
On to `CC(C)COC(=O)c1[nH]c2ccc(F)cc2c1-c1cn(CC2CCN(CCNS(=O)(=O)Cc3cccc(Cl)c3)CC2)nn1` [AB937, isobutyl 3-(1-((1-(2-(((3-chlorophenyl)methyl)sulfonamido)ethyl)piperidin-4-yl)methyl)-1H-1,2,3-triazol-4-yl)-5-fluoro-1H-indole-2-carboxylate], for which 800 nM corresponded to half-maximal inhibition under setting [1] (IC50).
Take `CC(C)COC(=O)c1[nH]c2ccc(F)cc2c1-c1cn(CC2CCN(S(=O)(=O)c3ccc(C(C)(C)C)cc3)CC2)nn1` [AB938]: the inhibition at 1 µM (ATP 10 μM) was 5%.
